Molecules are shown by their SMILES.

The term IC50 denotes the concentration that inhibits the measured activity by half.

Chain of Beta-3 Adrenergic Receptor (P13945 whole entry, species assumed): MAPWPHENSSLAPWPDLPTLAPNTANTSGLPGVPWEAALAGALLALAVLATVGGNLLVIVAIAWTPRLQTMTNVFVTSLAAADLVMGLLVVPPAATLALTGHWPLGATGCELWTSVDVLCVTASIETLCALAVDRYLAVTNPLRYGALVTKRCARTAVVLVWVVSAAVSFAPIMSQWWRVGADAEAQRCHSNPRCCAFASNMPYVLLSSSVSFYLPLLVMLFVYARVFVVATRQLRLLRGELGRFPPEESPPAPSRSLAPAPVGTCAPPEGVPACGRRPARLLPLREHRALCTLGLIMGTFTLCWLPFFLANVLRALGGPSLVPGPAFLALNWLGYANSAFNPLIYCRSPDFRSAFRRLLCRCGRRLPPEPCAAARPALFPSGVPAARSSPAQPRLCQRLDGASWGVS

This test has as its target Beta-3 Adrenergic Receptor (Homo sapiens (Human), UniProt P13945). The test can be described thus: Homogeneous Time-Resolved Fluorescence (HTRF) cAMP antagonist assay, IC50 determination. Format: cell-based. The settings on record: CHO-K1 cells stably expressing recombinant receptor, isoproterenol at EC90. The essentials: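 In this functional readout, recombinant CHO-K1 cells received compound, then isoproterenol at its EC90. After 1 h at room temperature, cAMP levels were determined by HTRF using an on-plate standard curve, and IC50 values were fitted.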
For orientation: In TR-FRET formats the signal depends on donor and acceptor labels being close together.
In the case of `CNS(=O)(=O)c1cccc(OC[C@@H](O)CN[C@@H]2COC3(CCN(S(=O)(=O)c4ccc(OC)c(-c5ccc(C6(N)CC6)cc5)c4)CC3)C2)c1` [Compound 463, 3-((S)-3-((S)-8-(4′-(1-aminocyclopropyl)-6-methoxybiphenyl-3-ylsulfonyl)-1-oxa-8-azaspiro[4.5]decan-3-ylamino)-2-hydroxypropoxy)-N-methylbenzenesulfonamide], the concentration for half-maximal inhibition (IC50) is 24.3 nM.

As to `CNS(=O)(=O)c1cccc(OC[C@@H](O)CN[C@H]2COC3(CCN(S(=O)(=O)c4ccc(OC)c(-c5ccc(C6(N)CC6)cc5)c4)CC3)C2)c1` [Compound 464, 3-((S)-3-((R)-8-(4′-(1-aminocyclopropyl)-6-methoxybiphenyl-3-ylsulfonyl)-1-oxa-8-azaspiro[4.5]decan-3-ylamino)-2-hydroxypropoxy)-N-methylbenzenesulfonamide], the IC50 was determined as 13.9 nM.

In the case of `CNS(=O)(=O)c1cccc(OC[C@@H](O)CN[C@H]2COC3(CCN(S(=O)(=O)c4cnc5c(c4)N(CCO)CCO5)CC3)C2)c1` [Compound 465, 3-((S)-2-hydroxy-3-((R)-8-(1-(2-hydroxyethyl)-2,3-dihydro-1H-pyrido[2,3-b][1,4]oxazin-7-ylsulfonyl)-1-oxa-8-azaspiro[4.5]decan-3-ylamino)propoxy)-N-methylbenzenesulfonamide], the 50% inhibitory concentration (IC50) came to 26.3 nM.

`CNS(=O)(=O)c1cccc(OC[C@@H](O)CN[C@H]2COC3(CCN(S(=O)(=O)c4cc5c(nc4C)OCCN5C)CC3)C2)c1` [Compound 466, 3-((S)-3-((R)-8-(1,6-dimethyl-2,3-dihydro-1H-pyrido[2,3-b][1,4]oxazin-7-ylsulfonyl)-1-oxa-8-azaspiro[4.5]decan-3-ylamino)-2-hydroxypropoxy)-N-methylbenzenesulfonamide]: the IC50 was determined as 101 nM.

With `CNS(=O)(=O)c1cccc(OC[C@@H](O)CN[C@H]2COC3(CCN(S(=O)(=O)c4cnc5c(c4C)N(C)CCO5)CC3)C2)c1` [Compound 467, 3-((S)-3-((R)-8-(1,8-dimethyl-2,3-dihydro-1H-pyrido[2,3-b][1,4]oxazin-7-ylsulfonyl)-1-oxa-8-azaspiro[4.5]decan-3-ylamino)-2-hydroxypropoxy)-N-methylbenzenesulfonamide], the half-inhibitory concentration (IC50) was 33.4 nM.

With `CNS(=O)(=O)c1cccc(OC[C@@H](O)CN[C@H]2COC3(CCN(S(=O)(=O)c4cnc5c(c4)N(C)C[C@@H](C)O5)CC3)C2)c1` [Compound 468, 3-((S)-3-((R)-8-((R)-1,3-dimethyl-2,3-dihydro-1H-pyrido[2,3-b][1,4]oxazin-7-ylsulfonyl)-1-oxa-8-azaspiro[4.5]decan-3-ylamino)-2-hydroxypropoxy)-N-methylbenzenesulfonamide], the concentration for half-maximal inhibition (IC50) was 31.1 nM.

Turning to `CNS(=O)(=O)c1cccc(OC[C@@H](O)CN[C@H]2COC3(CCN(S(=O)(=O)c4cnc5c(c4)N(C(C)C)CCO5)CC3)C2)c1` [Compound 469, 3-((S)-2-hydroxy-3-((R)-8-(1-isopropyl-2,3-dihydro-1H-pyrido[2,3-b][1,4]oxazin-7-ylsulfonyl)-1-oxa-8-azaspiro[4.5]decan-3-ylamino)propoxy)-N-methylbenzenesulfonamide], the IC50 stood at 31.3 nM.

As for `CCCN1CCOc2ncc(S(=O)(=O)N3CCC4(CC3)C[C@@H](NC[C@H](O)COc3cccc(S(=O)(=O)NC)c3)CO4)cc21` [Compound 470, 3-((S)-2-hydroxy-3-((R)-8-(1-propyl-2,3-dihydro-1H-pyrido[2,3-b][1,4]oxazin-7-ylsulfonyl)-1-oxa-8-azaspiro[4.5]decan-3-ylamino)propoxy)-N-methylbenzenesulfonamide], the IC50 worked out at 35.8 nM.

As for `CNS(=O)(=O)c1cccc(OC[C@@H](O)CN[C@H]2COC3(CCN(S(=O)(=O)c4cnc5c(c4)N(CCOC)CCO5)CC3)C2)c1` [Compound 471, 3-((S)-2-hydroxy-3-((R)-8-(1-(2-methoxyethyl)-2,3-dihydro-1H-pyrido[2,3-b][1,4]oxazin-7-ylsulfonyl)-1-oxa-8-azaspiro[4.5]decan-3-ylamino)propoxy)-N-methylbenzenesulfonamide], the 50% inhibitory concentration (IC50) is 69 nM.

As to `CNS(=O)(=O)c1cccc(OC[C@@H](O)CN[C@H]2COC3(CCN(S(=O)(=O)c4cnc5c(c4)N(C)C[C@H](C)O5)CC3)C2)c1` [Compound 472, 3-((S)-3-((R)-8-((S)-1,3-dimethyl-2,3-dihydro-1H-pyrido[2,3-b][1,4]oxazin-7-ylsulfonyl)-1-oxa-8-azaspiro[4.5]decan-3-ylamino)-2-hydroxypropoxy)-N-methylbenzenesulfonamide], the 50% inhibitory concentration (IC50) came to 35.4 nM.

Consider `CNS(=O)(=O)c1cccc(OC[C@@H](O)CN[C@H]2COC3(CCN(S(=O)(=O)c4cnc5c(c4)N(C)CC(C)(C)O5)CC3)C2)c1` [Compound 473, 3-((S)-2-hydroxy-3-((R)-8-(1,3,3-trimethyl-2,3-dihydro-1H-pyrido[2,3-b][1,4]oxazin-7-ylsulfonyl)-1-oxa-8-azaspiro[4.5]decan-3-ylamino)propoxy)-N-methylbenzenesulfonamide], for which the IC50 turned out to be 59.2 nM.

As for `CNS(=O)(=O)c1cccc(OC[C@@H](O)CN[C@H]2COC3(CCN(S(=O)(=O)c4cnc5c(c4)N(C)CC4(CC4)O5)CC3)C2)c1` [Compound 474, 3-((S)-2-hydroxy-3-((R)-8-(1′-methyl-1′,2′-dihydrospiro[cyclopropane-1,3′-pyrido[2,3-b][1,4]oxazine]-7′-ylsulfonyl)-1-oxa-8-azaspiro[4.5]decan-3-ylamino)propoxy)-N-methylbenzenesulfonamide], the IC50 came out at 44.2 nM.

For the molecule `CNS(=O)(=O)c1cccc(OC[C@@H](O)CN[C@H]2COC3(CCN(S(=O)(=O)c4cnc5c(c4)ncn5C)CC3)C2)c1` [Compound 475, 3-((S)-2-hydroxy-3-((R)-8-(3-methyl-3H-imidazo[4,5-b]pyridin-6-ylsulfonyl)-1-oxa-8-azaspiro[4.5]decan-3-ylamino)propoxy)-N-methylbenzenesulfonamide], the IC50 was 33.2 nM.

As to `CNS(=O)(=O)c1cccc(OC[C@@H](O)CN[C@H]2COC3(CCN(S(=O)(=O)c4cc5c(nc4OC)OCCN5C)CC3)C2)c1` [Compound 476, 3-((S)-2-hydroxy-3-((R)-8-(6-methoxy-1-methyl-2,3-dihydro-1H-pyrido[2,3-b][1,4]oxazin-7-ylsulfonyl)-1-oxa-8-azaspiro[4.5]decan-3-ylamino)propoxy)-N-methylbenzenesulfonamide], the concentration for half-maximal inhibition (IC50) came to 38.9 nM.

Turning to `CNS(=O)(=O)c1cccc(OC[C@@H](O)CN[C@H]2COC3(CCN(S(=O)(=O)c4cnc5[nH]c(=O)[nH]c5c4)CC3)C2)c1` [Compound 477, 3-((S)-2-hydroxy-3-((R)-8-(2-oxo-2,3-dihydro-1H-imidazo[4,5-b]pyridin-6-ylsulfonyl)-1-oxa-8-azaspiro[4.5]decan-3-ylamino)propoxy)-N-methylbenzenesulfonamide], the half-maximal inhibitory concentration (IC50) stood at 52.3 nM.

`CNS(=O)(=O)c1cccc(OC[C@@H](O)CN[C@H]2COC3(CCN(S(=O)(=O)c4cnc5c(c4)C(=O)NC5)CC3)C2)c1` [Compound 478, 3-((S)-2-hydroxy-3-((R)-8-(5-oxo-6,7-dihydro-5H-pyrrolo[3,4-b]pyridin-3-ylsulfonyl)-1-oxa-8-azaspiro[4.5]decan-3-ylamino)propoxy)-N-methylbenzenesulfonamide]: the IC50 was determined as 204 nM.

As for `CNS(=O)(=O)c1cccc(OC[C@@H](O)CN[C@H]2COC3(CCN(S(=O)(=O)c4cnc5c(c4)CCCC5)CC3)C2)c1` [Compound 479, 3-((S)-2-hydroxy-3-((R)-8-(5,6,7,8-tetrahydroquinolin-3-ylsulfonyl)-1-oxa-8-azaspiro[4.5]decan-3-ylamino)propoxy)-N-methylbenzenesulfonamide], the IC50 was 32.1 nM.

As to `CNS(=O)(=O)c1cccc(OC[C@@H](O)CN[C@H]2COC3(CCN(S(=O)(=O)c4cnc5c(c4)OCCO5)CC3)C2)c1` [Compound 480, 3-((S)-3-((R)-8-(2,3-dihydro-[1,4]dioxino[2,3-b]pyridin-7-ylsulfonyl)-1-oxa-8-azaspiro[4.5]decan-3-ylamino)-2-hydroxypropoxy)-N-methylbenzenesulfonamide], the IC50 came out at 75.3 nM.

With `CNS(=O)(=O)c1cccc(OC[C@@H](O)CN[C@H]2COC3(CCN(S(=O)(=O)c4cnc5c(c4)OCCN5C)CC3)C2)c1` [Compound 481, 3-((S)-2-hydroxy-3-((R)-8-(4-methyl-3,4-dihydro-2H-pyrido[3,2-b][1,4]oxazin-7-ylsulfonyl)-1-oxa-8-azaspiro[4.5]decan-3-ylamino)propoxy)-N-methylbenzenesulfonamide], the IC50 turned out to be 31.1 nM.

Regarding `CNS(=O)(=O)c1cccc(OC[C@@H](O)CN[C@H]2COC3(CCN(S(=O)(=O)c4cnc5c(c4)CNC5)CC3)C2)c1` [Compound 482, 3-((S)-3-((R)-8-(6,7-dihydro-5H-pyrrolo[3,4-b]pyridin-3-ylsulfonyl)-1-oxa-8-azaspiro[4.5]decan-3-ylamino)-2-hydroxypropoxy)-N-methylbenzenesulfonamide], the concentration for half-maximal inhibition (IC50) was found to be 1510 nM.

With `CNS(=O)(=O)c1cccc(OC[C@@H](O)CN[C@H]2COC3(CCN(S(=O)(=O)c4cnc5c(c4)CCCO5)CC3)C2)c1` [Compound 483, 3-((S)-3-((R)-8-(3,4-dihydro-2H-pyrano[2,3-b]pyridin-6-ylsulfonyl)-1-oxa-8-azaspiro[4.5]decan-3-ylamino)-2-hydroxypropoxy)-N-methylbenzenesulfonamide], the IC50 amounted to 41.8 nM.

With `CNS(=O)(=O)c1cccc(OC[C@@H](O)CN[C@H]2COC3(CCN(S(=O)(=O)c4cnc5c(c4)CNCC5)CC3)C2)c1` [Compound 484, 3-((S)-2-hydroxy-3-((R)-8-(5,6,7,8-tetrahydro-1,6-naphthyridin-3-ylsulfonyl)-1-oxa-8-azaspiro[4.5]decan-3-ylamino)propoxy)-N-methylbenzenesulfonamide], the concentration for half-maximal inhibition (IC50) turned out to be 278 nM.

As to `CNS(=O)(=O)c1cccc(OC[C@@H](O)CN[C@H]2COC3(CCN(S(=O)(=O)c4cnc5cccnc5c4)CC3)C2)c1` [Compound 485, 3-((S)-3-((R)-8-(1,5-naphthyridin-3-ylsulfonyl)-1-oxa-8-azaspiro[4.5]decan-3-ylamino)-2-hydroxypropoxy)-N-methylbenzenesulfonamide], the IC50 was determined as 35.8 nM.

These data come from patent US11987588B2, “Modulators of the beta-3 adrenergic receptor useful for the treatment or prevention of heart failure and disorders related thereto” (Arena Pharmaceuticals, Inc., priority 2017, dated 2024).
